The term Ki denotes a measure of affinity in units of concentration, obtained from inhibition or displacement.

This is an account of results in article PMC7072329, “Discovery of Kynurenines Containing Oligopeptides as Potent Opioid Receptor Agonists” (Biomolecules, 2020).

Where a SMILES comes first, the peptide text is derived from it. [ ]: non-standard residue; d: D form. Kyn = Nc1ccccc1C(=O)C[C@H](N)C(=O)O

In one data set the target is NMDA receptor. The experiment in a line: [3H]MK-801 competition binding, rat brain membrane. To be noted: read-out: Ki + S.E.M., displacement of [3H]MK-801.
The subject of a further data set is CD-1 male mice. The experiment in a line: tail flick test. It is filed as in vivo. To be noted: i.c.v., 10 μg/10 μL, 15 to 120 min. On the procedure: In our experiments, we used CD-1 male mice (Harlan, Italy, 25–30 g) maintained in colony, housed in cages (7 mice per cage) under standard light/dark cycle (from 7:00 a.m. to 7:00 p.m.), temperature (21 ± 1 °C) and relative humidity (60% ± 10%) for at least 1 week. Food and water were available ad libitum. The Service for Biotechnology and Animal Welfare of the Istituto Superiore di Sanità and the Italian Ministry of Health authorized the experimental protocol according to Legislative Decree 26/14.
DMSO was purchased from Merck (Rome, Italy). Peptides solutions were freshly prepared using saline containing 0.9% NaCl and DMSO in the ratio DMSO/saline 1:5 v/v every experimental day. […]
The tail flick latency was obtained using a commercial unit (Ugo Basile, Gemonio, Italy), consisting of an infrared radiant light source (100 W, 15 V bulb) focused onto a photocell utilizing an aluminum parabolic mirror. […] Radiant heat was focused 3–4 cm from the tip of the tail, and the latency (s) of the tail withdrawal to the thermal stimulus was recorded. […] The baseline latency was calculated as mean of three readings recorded before testing at intervals of 15 min and the time course of latency determined at 15, 30, 45, 60, 90, and 120 min after treatment. […]
Experimental data were expressed as mean ± s.e.m. […]

Data set [1] is described as follows: stability in human plasma. In kind it is in vitro ADME. To be noted: 37 °C. On the procedure:
Five microliters of K6 (500 μg in 250 μL of water) were added to 45 μL of fresh human plasma, then incubated at 37 ± 1 °C. Prepared samples were removed at several designated time points and incubation was stopped by adding an equal volume of the sequencing mixture (5% aqueous ZnSO4 solution, MeOH, and ACN; 5:3:2), which precipitated proteins, to achieve a final concentration of 100 μg/mL. The mixture was vortexed and centrifuged at 12,000× g for 5 min, then 20 μL of clear supernatant was directly injected into the HPLC system (Waters model 600 solvent pump and 2996 photodiode array detector, with XBridge BEH 130 C18, 4.6 × 250 mm, 5 μm). The samples were tested in three independents experiments (n = 3) and reported values represent the mean ± standard error (SEM). Data were analysed using simple regression analysis (significant deviation from zero: F1,13 = 171.9, p < 0.0001; Y = −0.9705 × X + 95.98).
Five calibration standards were injected into the HPLC-UV/Vis system. HPLC analyses were performed on a Waters liquid chromatograph equipped with a model 600 solvent pump and a 2996 photodiode array detector, and the mobile phase was degassed directly on-line by using Degassex, mod. DG-4400 (Phenomenex, Torrance, CA, USA). Empower v2.0 Software (Waters Spa, Milford, MA, USA) was used for data acquisition and elaboration. A reversed-phase packing column (XBridge BEH 130 C18, 4.6 × 250 mm, 5 μm; Waters Spa, Milford, MA, USA) was employed for the separation and the column was held at room temperature (22 ± 1 °C). K6 remaining concentrations at different times are reported below. For quantitative analyses, selective detection was performed at 210 nm. Gradient elution mode was performed using a mobile phase containing a […] water-ACN ratio as starting conditions and gradient program as reported. […]
All the sample solutions were previously centrifuged and 20 µL of the supernatant was injected into the HPLC-UV/Vis system. Calibration curves from 2 to 10 μg/mL were calculated by analyzing five non-zero concentration standards prepared in freshly spiked plasma solution in triplicate and extracted. All quantitative analyses were performed at 210 nm. Calibration curves were linear with r2 values always greater than 0.988 (n = 3). In reported chromatographic conditions, the retention times for K6 was 16.45 minutes (± 0.4, n = 20), the substance identity was confirmed by LS-MS analysis.
Time ( minutes) K6 Concentration (µg/mL) K6% of degradation

On to `C[C@@H](NC(=O)[C@@H](N)Cc1ccc(O)cc1)C(=O)NCC(=O)N[C@@H](Cc1ccccc1)C(=O)N[C@@H](CC(=O)c1ccccc1N)C(N)=O` [Peptide K6] (H-Y[dA]GF[Kyn]-NH2), for which, at NMDA receptor, the Ki is over 10 µM. The “effect on time of response to thermal nociceptive stimuli (tail flick)” value in the data set on CD-1 male mice is listed as “greatly increase the time of response to thermal nociceptive stimuli”. Further, in data set [1] (0 minutes), the K6% of degradation was 0%. In data set [1] (fresh human plasma, 5 minutes, read-out: K6% of degradation), the metabolised at 5 min, 200 μg/mL was found to be 7%. Further, in data set [1] (fresh human plasma, 10 minutes, read-out: K6% of degradation), the metabolised at 10 min, 200 μg/mL was 15%. Besides, the metabolised at 0.5 h, 200 μg/mL in data set [1] (fresh human plasma, 30 minutes, read-out: K6% of degradation) was found to be 36%. The metabolised at 1 h, 200 μg/mL in data set [1] (fresh human plasma, 60 minutes, read-out: K6% of degradation) turned out to be 56%. In addition, in data set [1] (plasma (fresh), linear regression, read-out: t1/2 in human plasma), the half-life at 200 μg/mL was 47 min.
